Experimental data from the supplement of paper PMC10307832.

Legend:
Test in all cases: relative viability (nuclei count vs DMSO), 5 days (fraction); higher = more cells survive
ABC-1 = tested on: ABC-1
In short: (§1)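 Each reported value is a median over duplicate plates. It expresses relative viability: treated-well nuclei count divided by vehicle-well nuclei count. Lung cancer cell lines in 1536-well plates were dosed by pin tool a day after seeding, alone with one drug or with a fixed anchor-drug dose plus five library-drug doses (not always all listed) in √10 steps, and nuclei were counted after 5 days.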

CAL-12T = tested on: CAL-12T
In short: as §1

COR-L23 = tested on: COR-L23
In short: as §1

EKVX = tested on: EKVX
In short: as §1

H3255 = tested on: H3255
In short: as §1

HCC-15 = tested on: HCC-15
In short: as §1

HCC-827 = tested on: HCC-827
In short: as §1

LK-2 = tested on: LK-2
In short: as §1

NCI-H1355 = tested on: NCI-H1355
In short: as §1

NCI-H1437 = tested on: NCI-H1437
In short: as §1

NCI-H1563 = tested on: NCI-H1563
In short: as §1

NCI-H1650 = tested on: NCI-H1650
In short: as §1

NCI-H1734 = tested on: NCI-H1734
In short: as §1

NCI-H2228 = tested on: NCI-H2228
In short: as §1

NCI-H2342 = tested on: NCI-H2342
In short: as §1

NCI-H2405 = tested on: NCI-H2405
In short: as §1

NCI-H322M = tested on: NCI-H322M
In short: as §1

NCI-H520 = tested on: NCI-H520
In short: as §1

NCI-H661 = tested on: NCI-H661
In short: as §1

PC-14 = tested on: PC-14
In short: as §1

PC-3 [JPC-3] = tested on: PC-3 [JPC-3]
In short: as §1

RERF-LC-KJ = tested on: RERF-LC-KJ
In short: as §1

SW 1573 = tested on: SW 1573
In short: as §1

In the case of `CC1(C)CCC(c2ccc(Cl)cc2)=C(CN2CCN(c3ccc(C(=O)NS(=O)(=O)c4ccc(N[C@H](CCN5CCOCC5)CSc5ccccc5)c(S(=O)(=O)C(F)(F)F)c4)cc3)CC2)C1` [Navitoclax] + CCNC(=O)c1noc(-c2cc(C(C)C)c(O)cc2O)c1-c1ccc(CN2CCOCC2)cc1 [Luminespib] (partner 0.01 µM), the relative viability (ABC-1; first compound 0.005 µM) is reported as 0.596, the relative viability (ABC-1; first compound 0.01581 µM) is reported as 0.909 and the relative viability (ABC-1; first compound 0.05 µM) is reported as 0.677. The relative viability (ABC-1; first compound 0.5 µM) was 0.6, the relative viability (CAL-12T; first compound 0.005 µM) was 0.308 and the relative viability (CAL-12T; first compound 0.01581 µM) was 0.563. It also gave a relative viability (CAL-12T; first compound 0.05 µM) of 0.708, a relative viability (CAL-12T; first compound 0.1581 µM) of 0.826 and a relative viability (CAL-12T; first compound 0.5 µM) of 0.251. The relative viability (COR-L23; first compound 0.005 µM) was 0.605, the relative viability (COR-L23; first compound 0.01581 µM) was 0.606 and the relative viability (COR-L23; first compound 0.05 µM) was 0.738. For the same compound, the relative viability (COR-L23; first compound 0.1581 µM) was 0.595, the relative viability (COR-L23; first compound 0.5 µM) was 0.666 and the relative viability (EKVX; first compound 0.005 µM) was 0.94. The relative viability (EKVX; first compound 0.01581 µM) was 1.01, the relative viability (EKVX; first compound 0.05 µM) was 0.663 and the relative viability (EKVX; first compound 0.1581 µM) was 0.784. The relative viability (EKVX; first compound 0.5 µM) was 0.785, the relative viability (H3255; first compound 0.005 µM) was 0.874 and the relative viability (H3255; first compound 0.01581 µM) was 0.877. The relative viability (H3255; first compound 0.05 µM) was 0.834, the relative viability (H3255; first compound 0.1581 µM) was 0.869 and the relative viability (H3255; first compound 0.5 µM) was 0.741. For the same compound, the relative viability (HCC-15; first compound 0.005 µM) was 0.299, the relative viability (HCC-15; first compound 0.01581 µM) was 0.284 and the relative viability (HCC-15; first compound 0.05 µM) was 0.546. For the same compound, the relative viability (HCC-15; first compound 0.1581 µM) was 0.352, the relative viability (HCC-15; first compound 0.5 µM) was 0.256 and the relative viability (HCC-827; first compound 0.005 µM) was 0.681. The relative viability (HCC-827; first compound 0.01581 µM) was 0.699, the relative viability (HCC-827; first compound 0.05 µM) was 0.49 and the relative viability (HCC-827; first compound 0.1581 µM) was 0.58. The relative viability (HCC-827; first compound 0.5 µM) was 0.69, the relative viability (LK-2; first compound 0.005 µM) was 0.204 and the relative viability (LK-2; first compound 0.01581 µM) was 0.191. The relative viability (LK-2; first compound 0.05 µM) was 0.202, the relative viability (LK-2; first compound 0.1581 µM) was 0.191 and the relative viability (LK-2; first compound 0.5 µM) was 0.195. For the same compound, the relative viability (NCI-H1355; first compound 0.005 µM) was 0.725, the relative viability (NCI-H1355; first compound 0.01581 µM) was 0.845 and the relative viability (NCI-H1355; first compound 0.05 µM) was 0.674. For the same compound, the relative viability (NCI-H1355; first compound 0.1581 µM) was 0.668, the relative viability (NCI-H1355; first compound 0.5 µM) was 0.742 and the relative viability (NCI-H1437; first compound 0.005 µM) was 1.12. It also gave a relative viability (NCI-H1437; first compound 0.01581 µM) of 1.1, a relative viability (NCI-H1437; first compound 0.05 µM) of 1.09 and a relative viability (NCI-H1437; first compound 0.1581 µM) of 1.14. It also gave a relative viability (NCI-H1437; first compound 0.5 µM) of 1.01, a relative viability (NCI-H1563; first compound 0.005 µM) of 0.53 and a relative viability (NCI-H1563; first compound 0.01581 µM) of 0.507. The relative viability (NCI-H1563; first compound 0.05 µM) was 0.485, the relative viability (NCI-H1563; first compound 0.1581 µM) was 0.557 and the relative viability (NCI-H1563; first compound 0.5 µM) was 0.475. It also gave a relative viability (NCI-H1650; first compound 0.005 µM) of 0.214, a relative viability (NCI-H1650; first compound 0.01581 µM) of 0.21 and a relative viability (NCI-H1650; first compound 0.05 µM) of 0.167. For the same compound, the relative viability (NCI-H1650; first compound 0.1581 µM) was 0.206, the relative viability (NCI-H1650; first compound 0.5 µM) was 0.192 and the relative viability (NCI-H1734; first compound 0.005 µM) was 0.174. It also gave a relative viability (NCI-H1734; first compound 0.01581 µM) of 0.191, a relative viability (NCI-H1734; first compound 0.1581 µM) of 0.182 and a relative viability (NCI-H1734; first compound 0.5 µM) of 0.16. For the same compound, the relative viability (NCI-H2228; first compound 0.005 µM) was 0.148, the relative viability (NCI-H2228; first compound 0.01581 µM) was 0.148 and the relative viability (NCI-H2228; first compound 0.1581 µM) was 0.146. The relative viability (NCI-H2228; first compound 0.5 µM) was 0.142, the relative viability (NCI-H2342; first compound 0.005 µM) was 0.683 and the relative viability (NCI-H2342; first compound 0.01581 µM) was 0.747. For the same compound, the relative viability (NCI-H2342; first compound 0.05 µM) was 0.476, the relative viability (NCI-H2342; first compound 0.1581 µM) was 0.723 and the relative viability (NCI-H2342; first compound 0.5 µM) was 0.683. The relative viability (NCI-H2405; first compound 0.005 µM) was 0.89, the relative viability (NCI-H2405; first compound 0.01581 µM) was 0.727 and the relative viability (NCI-H2405; first compound 0.05 µM) was 0.755. For the same compound, the relative viability (NCI-H2405; first compound 0.1581 µM) was 0.765, the relative viability (NCI-H2405; first compound 0.5 µM) was 0.702 and the relative viability (NCI-H322M; first compound 0.005 µM) was 0.81. For the same compound, the relative viability (NCI-H322M; first compound 0.01581 µM) was 1.12, the relative viability (NCI-H322M; first compound 0.05 µM) was 1.07 and the relative viability (NCI-H322M; first compound 0.1581 µM) was 0.908. The relative viability (NCI-H322M; first compound 0.5 µM) was 0.908, the relative viability (NCI-H520; first compound 0.005 µM) was 0.249 and the relative viability (NCI-H520; first compound 0.01581 µM) was 0.234. For the same compound, the relative viability (NCI-H520; first compound 0.05 µM) was 0.268, the relative viability (NCI-H520; first compound 0.1581 µM) was 0.235 and the relative viability (NCI-H520; first compound 0.5 µM) was 0.229. For the same compound, the relative viability (NCI-H661; first compound 0.005 µM) was 0.94, the relative viability (NCI-H661; first compound 0.01581 µM) was 0.853 and the relative viability (NCI-H661; first compound 0.05 µM) was 0.971. For the same compound, the relative viability (NCI-H661; first compound 0.1581 µM) was 0.775, the relative viability (NCI-H661; first compound 0.5 µM) was 0.884 and the relative viability (PC-14; first compound 0.005 µM) was 0.223. For the same compound, the relative viability (PC-14; first compound 0.01581 µM) was 0.154, the relative viability (PC-14; first compound 0.05 µM) was 0.23 and the relative viability (PC-14; first compound 0.1581 µM) was 0.313. The relative viability (PC-14; first compound 0.5 µM) was 0.146, the relative viability (PC-3 [JPC-3]; first compound 0.005 µM) was 0.738 and the relative viability (PC-3 [JPC-3]; first compound 0.01581 µM) was 0.807. The relative viability (PC-3 [JPC-3]; first compound 0.05 µM) was 0.765, the relative viability (PC-3 [JPC-3]; first compound 0.1581 µM) was 0.684 and the relative viability (PC-3 [JPC-3]; first compound 0.5 µM) was 0.724. The relative viability (RERF-LC-KJ; first compound 0.005 µM) was 1.32, the relative viability (RERF-LC-KJ; first compound 0.01581 µM) was 1.23 and the relative viability (RERF-LC-KJ; first compound 0.05 µM) was 1.17. For the same compound, the relative viability (RERF-LC-KJ; first compound 0.1581 µM) was 1.18, the relative viability (RERF-LC-KJ; first compound 0.5 µM) was 1.04 and the relative viability (SW 1573; first compound 0.005 µM) was 0.145. It also gave a relative viability (SW 1573; first compound 0.01581 µM) of 0.213, a relative viability (SW 1573; first compound 0.05 µM) of 0.429 and a relative viability (SW 1573; first compound 0.1581 µM) of 0.212. It also gave a relative viability (SW 1573; first compound 0.5 µM) of 0.206.
